Data taken from article PMC10469817, “A novel UHPLC‒MS/MS method for quantitative analysis of zanubrutinib in rat plasma: application to an in vivo interaction study between zanubrutinib and triazole antifungal” (BMC Chemistry, 2023).
Like-named read-outs stand apart in the source and are kept apart here.

Assays:
[1] = tested on: CYP3A4; design: method as in PMID 16205037, PMID 30477963; settings: cited from earlier work
[2] = DDI study: pharmacokinetics of zanubrutinib in rats alone or with fluconazole / isavuconazole; format: in vivo, Sprague–Dawley (SD) rats; settings: for AUC(0-inf) / AUC(0-t) / Cmax / Tmax / half-life / CL/F / MRT last / MRT inf / Vd/F: rat, plasma, po, zanubrutinib 30 mg/kg gavage, n = 6, mean ± SD; for CL/F: read-out: CLz/F (converted); for MRT last: read-out: MRT(0−t); for MRT inf: read-out: MRT(0−∞); for Vd/F: read-out: Vz/F; for time to peak: in h (unit assumed); for peak plasma concentration: in ng/mL; for area under the curve: in µg·h/L
Description: The separation procedures were processed using a Shim-pack velox C18 column (2.1 × 50 mm, 2.7 μm) at 40 degrees Celsius. The mobile phases were 0.1% formic acid-water and methanol. The gradient elution mode (each injection = 3 min) was applied as follows: the first 0-0.5 min was maintained at 10% methanol, followed by linearly increasing to 80% methanol (0.5–0.8 min) and keeping 80% methanol for 0.8–1.5 min. […] At the stage of the analysis process, the sample injection volume and flow rate were set as 2 µL and 0.4 mL/min, respectively.
Triple quadrupole mass spectrometry (Shimadzu Corp., Tokyo, Japan) was utilized for sample detection. The parameters for this procedure were set as follows: the detector voltage, heating block temperature, flow of atomizing gas, and drying gas were set as 4.5 kV, 400 °C, 3 L/min and 5 L/min, respectively. Multiple reaction monitoring (MRM) mode was performed to detect the precursor and product ions of the IS and analyte. The first and second signal strength product ions were applied to quantitation and qualification, respectively, to ensure the specificity of the detection. In addition, the retention times of the IS and analyte were also considered to further improve the detection specificity.
Eighteen SD rats were randomly split into three groups (Groups A-C). […] The same dose (0.5% CMC-Na) was administered to Group A (control group). After half an hour, each rat was treated with 30 mg/kg zanubrutinib. Thereafter, rat blood samples (0.3 mL) from the caudal vein at a series of time points (0.083, 0.5, 1, 2, 3, 4, 5, 6, 8, and 12 h) were collected in heparin tubes. The blood samples were centrifuged at 13,000 × g for 10 min at 4 °C, followed by separation of plasma and storage at -80 °C.
Prior to the experiment, the − 80 °C stored rat plasma samples were placed at room temperature for thawing. At the protein precipitation stage, 40 µL IS, 200 µL acetonitrile, and 100 µL plasma were collectively added to a 1.5 mL centrifuge tube, vortexed to mix thoroughly, and centrifuged at 12,000 × g for 10 min. Afterwards, 100 µL supernatant was transferred to a centrifuge tube and gently mixed with 100 µL ultrapure water for UHPLC–MS/MS analysis.

[3] = tested on: CYP3A4; design: method as in PMID 34252374; settings: in vitro experiments; to phenoxy phenyl hydroxylation metabolites; cited from earlier work
[4] = design: method as in PMID 31875923; settings: healthy volunteers, combined with itraconazole (CYP3A4 inhibitor); cited from earlier work
[5] = design: method as in PMID 31340982; settings: cited from earlier work
[6] = tested on: IL-2-induced kinase (ITK); design: method as in PMID 31171645; settings: compared to ibrutinib; cited from earlier work
[7] = Stability of zanubrutinib in rat plasma under different storage conditions; format: in vitro ADME; settings: for Stability in rat plasma, RE(%): n = 6
Description: Under a series of storage conditions, each concentration of rat plasma QC samples (2, 40 and 800 ng/mL) was evaluated in 6 replicates to explore the stability of the method. This experiment determines the stabilities of the QC samples during analyses and different storage conditions. […] The testing results with RSD% (< 15%) and RE% (± 15%) were considered stable.

[8] = tested on: BTK; design: method as in PMID 31340982; settings: peripheral blood mononuclear cells (PBMCs) and peripheral lymph nodes in patients with B-cell lymphoma; cited from earlier work
[9] = single administration of 320 mg
[10] = Sprague-Dawley, 30 mg/kg, rats, Group A: the control group (0.5% CMC-Na)
[11] = Sprague-Dawley, 30 mg/kg, rats, Group B: 20 mg/kg isavuconazole
[12] = Sprague-Dawley, 30 mg/kg, rats, Group C: 20 mg/kg fluconazole
[13] = rats, zanubrutinib (30 mg/kg) alone
[14] = rats, zanubrutinib (30 mg/kg) coadministered with fluconazole (20 mg/kg)
[15] = rats, zanubrutinib (30 mg/kg) coadministered with isavuconazole (20 mg/kg)

For `OC(Cn1cncn1)(Cn1cncn1)c1ccc(F)cc1F` [fluconazole], the CYP3A4 inhibition [1] is given as “CYP3A4 enzyme inhibitors”.
For `C[C@@H](c1nc(-c2ccc(C#N)cc2)cs1)[C@](O)(Cn1cncn1)c1cc(F)ccc1F` [isavuconazole], the CYP3A4 inhibition [1] is given as “CYP3A4 enzyme inhibitors” and the “inhibitory effect on the metabolism of zanubrutinib” value ([2]; rats, 20 mg/kg antifungal by gavage half an hour before 30 mg/kg zanubrutinib) is given as “obvious inhibitory effect”.
In the case of `C=CC(=O)N1CCC([C@@H]2CCNc3c(C(N)=O)c(-c4ccc(Oc5ccccc5)cc4)nn32)CC1` [zanubrutinib], the “enzyme primarily metabolizing zanubrutinib” value [3] is listed as “CYP3A4”, the “AUC increased to (combined with itraconazole)” value [4] is listed as 143% and the “Cmax increased to (combined with itraconazole)” value [4] is listed as 154%. For the same compound, the “time of peak concentration (Tmax)” value ([5]; patients with malignant lymphoma, oral administration) was “approximately 2 h”, the “mean half-life (t1/2)” value [5, 9] was “approximately 4 h” and the “mean peak concentration (Cmax)” value [5, 9] was 658 ng/mL. For the same compound, the “times lower at inhibiting IL-2-induced kinase (ITK) than ibrutinib” value [6] was “more than 20 times”, the “Stability in rat plasma, RE(%)” value ([7]; 4 °C (24 h), 2 ng/mL) was 1.3% and the “Stability in rat plasma, RE(%)” value ([7]; 4 °C (24 h), 40 ng/mL) was 1.4%. For the same compound, the “Stability in rat plasma, RE(%)” value ([7]; 4 °C (24 h), 800 ng/mL) was 1.0%, the “Stability in rat plasma, RE(%)” value ([7]; -80 °C (long-term), 2 ng/mL) was 2.5% and the “Stability in rat plasma, RE(%)” value ([7]; -80 °C (long-term), 40 ng/mL) was 1.5%. The “Stability in rat plasma, RE(%)” value ([7]; -80 °C (long-term), 800 ng/mL) was 4.0%, the “Stability in rat plasma, RE(%)” value ([7]; Room temperature (4 h), 2 ng/mL) was -0.2% and the “Stability in rat plasma, RE(%)” value ([7]; Room temperature (4 h), 40 ng/mL) was -1.4%. The “Stability in rat plasma, RE(%)” value ([7]; Room temperature (4 h), 800 ng/mL) was -2.3%, the “Stability in rat plasma, RE(%)” value ([7]; Three freeze‒thaw, 2 ng/mL) was -1.8% and the “Stability in rat plasma, RE(%)” value ([7]; Three freeze‒thaw, 40 ng/mL) was 2.6%. The “Stability in rat plasma, RE(%)” value ([7]; Three freeze‒thaw, 800 ng/mL) was -0.4%, the “stability in plasma under the assessed storage conditions” value ([7]; room temperature, 4 degrees Celsius refrigeration, freeze thawing, cryopreservation for long-term) was “stable” and the “efficacy of BTK inhibition” value [8] was about 100%. It also gave a concentration at 1 h ([2]; Sprague-Dawley, 30 mg/kg, a rat plasma sample obtained 1 h after oral administration of zanubrutinib) of 230 ng/mL, an AUC(0-inf) [2, 10] of 1090 ± 44.2 ng·h/mL and an AUC(0-t) [2, 10] of 1080 ± 43.8 ng·h/mL. For the same compound, the Cmax [2, 10] was 332 ± 52.8 ng/mL, the Tmax [2, 10] was 1.83 ± 0.41 h and the half-life [2, 10] was 1.34 ± 0.11 h. The CL/F [2, 10] was 461 mL/min/kg, the MRT last [2, 10] was 2.71 ± 0.1 h and the MRT inf [2, 10] was 2.76 ± 0.09 h. The Vd/F [2, 10] was 53.2 ± 3.64 L/kg, the AUC(0-inf) [2, 11] was 1270 ± 78 ng·h/mL and the AUC(0-t) [2, 11] was 1270 ng·h/mL. The Cmax [2, 11] was 396 ± 37.2 ng/mL, the Tmax [2, 11] was 2 h and the half-life [2, 11] was 1.42 ± 0.56 h. For the same compound, the CL/F [2, 11] was 394 mL/min/kg, the MRT last [2, 11] was 2.76 ± 0.07 h and the MRT inf [2, 11] was 2.82 ± 0.09 h. The Vd/F [2, 11] was 49 ± 21.1 L/kg, the AUC(0-inf) [2, 12] was 1730 ± 218 ng·h/mL and the AUC(0-t) [2, 12] was 1720 ± 219 ng·h/mL. For the same compound, the Cmax [2, 12] was 495 ± 131 ng/mL, the Tmax [2, 12] was 2.17 ± 0.41 h and the half-life [2, 12] was 1.37 ± 0.16 h. The CL/F [2, 12] was 293 mL/min/kg, the MRT last [2, 12] was 2.95 ± 0.14 h and the MRT inf [2, 12] was 3 ± 0.14 h. It also gave a Vd/F [2, 12] of 34.8 ± 6.57 L/kg, a time to peak [2, 13] of 1.83 ± 0.41 and a peak plasma concentration [2, 13] of 332.00 ± 52.79. The “area under the curve” value [2, 13] was 1081.67 ± 43.81, the time to peak [2, 14] was 2.17 ± 0.41 and the peak plasma concentration [2, 14] was 494.51 ± 130.68. The “area under the curve” value [2, 14] was 1721.61 ± 219.36, the time to peak [2, 15] was 2.00 ± 0.00 and the peak plasma concentration [2, 15] was 396.05 ± 37.19. The “area under the curve” value [2, 15] was 1267.55 ± 79.35.
